# What was measured:
# [1] = system: Akt(T308); experiment: Phospho-Akt(T308) in PC3 cell lysates, MSD; assay type: cell-based, human; settings: PC3, 1 hour exposure; read-out: p-Akt(T308) IC50
# Text: The direct substrate for TORC1 was 4E-BP 1(T46) and indirect downstream substrate was S6RP(S235/S236). The direct substrate for TORC2 was Akt(S473) and indirect downstream substrates measured were GSK3β(S9) and PRAS40(T246). Additionally, the phosphorylation status of Akt(T308), a phosphorylation site for PDK1 was monitored.
# MSD® biomarker detection assays provide a rapid and convenient method for measuring the total and phosphorylated levels of protein targets within a single small volume sample. These assays are available in both single-plex and multiplex formats. In a single-plex assay, an antibody for a specific protein target is coated on one electrode (or spot) per well. […] MSD Read Buffer that provides the appropriate chemical environment for ECL is added and the plate is read using an MSD SECTOR™ Imager. […] The instrument measures intensity of the emitted light to afford a quantitative measure of the amount of phosphorylated Akt or S6RP present in the sample. […]
# The assay plate was incubated with 150 μL of MSD Blocker A Solution for 1 hour with shaking at room temperature. […] Then 150 μL of 1×MSD Read Buffer T was added to each well. The plate was read on the SECTOR Imager plate reader. The Excel data was transferred to Activity Base and IC50 values were calculated.
# All data was analyzed using XLfit from IDBS. […]
# [2] = system: PC3 tumors; experiment: Antitumor activity of Compound 1 in PC3 human prostate cancer xenograft model; assay type: in vivo, SCID mice; settings: for tumor volume reduction compared with vehicle control: Day 31; for tumor volume reduction compared to vehicle control / tumor inhibition compared to vehicle control: day 31
# Protocol: The BID dose groups were dosed with a 10-hour separation between the morning and evening doses. […] At the end of each study, plasma and/or tumor samples were collected.
# PC3 cell line was obtained from American Tissue Culture Collection (ATCC) (Gaithersberg, Md.) and grown in growth medium containing Ham's F12K medium with 2 mM L-glutamine adjusted to contain 1.5 g/L sodium bicarbonate and 10% of fetal bovine serum. The cells were detached from tissue culture flasks using trypsin-EDTA. After centrifugation, the cell pellets were suspended in phosphate buffered saline (PBS) and counted using a hemocytometer.
# Mice were anesthetized with inhaled isoflurane and then inoculated with PC3 tumor cells subcutaneously on the right hind leg with 0.1 mL of single cell suspensions in Matrigel using a sterile 1 mL syringe fitted with a 26 gauge needle. Following inoculation, the mice were returned to microisolator cages.
# Following inoculation, the tumors were allowed to grow to about 100 mm^3 or 500 mm^3 prior to randomization. For efficacy studies, animals with tumors of approximately 100 mm^3 were used. The typical number of days required for tumors to reach 100 mm^3 was 9 to 11 days. The tumor of each animal was measured and animals with tumors ranging between 100 and 200 mm^3 were included in the study. For tolerability and regression studies, animals with tumors of approximately 500 mm^3 (range 300-500 mm^3) were used. The typical number of days required for tumors to reach 500 mm^3 was 20 to 22 days. The animals were then distributed randomly into various cages and the cages were randomly assigned to vehicle, positive control or test article groups. All of the mice were tagged with metal ear tags on the right ear. A typical efficacy study group consisted of 8 to 10 animals. Tolerability study group consisted of 4-6 animals.
# The formulations were homogenized using a Teflon™ pestle and mortar (Potter-Elvehjem tissue grinder). Between the doses, the formulated compound was stored under constant stirring using a magnetic stirrer at 4° C. in the dark. The test article and vehicle were administered by oral gavage. […] Sterile syringes and gavage needles were used for compound administration. All the procedures including injections were done in biosafety cabinets sprayed with 70% ethanol prior to use.
# Tumor volumes were determined prior to the initiation of treatment and were considered as the starting volumes. Thereafter, tumors were measured twice a week for the duration of the study. The long and short axes of each tumor were measured using a digital caliper in millimeters. The tumor volumes were calculated using the formula: width^2× length/2. The tumor volumes were expressed in cubic millimeters (mm^3).
# [3] = Mouse plasma protein binding; assay type: in vitro ADME; settings: Compound 1
compound,measurement,setting,value
"CO[C@H]1CC[C@H](N2C(=O)CNc3ncc(-c4ccc(C(C)(C)O)nc4)nc32)CC1 [Compound 1, 7-(6-(2-hydroxypropan-2-yl)pyridin-3-yl)-1-((1r,4r)-4-methoxycyclohexyl)-3,4-dihydropyrazino-[2,3-b]pyrazin-2(1H)-one]",IC50,[1],130 nM
same,tumor volume reduction compared with vehicle control,[2]; 5 mg/kg BID,64.9%
same,tumor volume reduction compared with vehicle control,[2]; 10 mg/kg BID,79.9%
same,tumor volume reduction compared to vehicle control,[2]; 10 mg/kg QD oral,46.1%
same,average tumor volume,"[2]; 10 mg/kg QD, Day 31 (vehicle 712)",383 mm^3
same,tumor inhibition compared to vehicle control,[2]; 25 mg/kg Q2D,72%
same,tumor inhibition compared to vehicle control,[2]; 25 mg/kg Q3D,61%
same,average tumor volume,"[2]; 25 mg/kg QD group, Day 52 after 3 weeks without dosing",about 427 mm^3
same,tumor response,"[2]; 25 mg/kg QD oral, 3 weeks",Tumor regression
same,tumor volume reduction compared to vehicle control,[2]; 25 mg/kg QD oral,86.7%
same,average tumor volume,"[2]; 25 mg/kg QD, Day 31 (158 on Day 11; vehicle 712)",123 mm^3
same,tumor volume at the end of the second cycle,"[2]; 25 mg/kg QD, second 3-week cycle",approximately 729 mm^3
same,tumor inhibition compared to vehicle control,[2]; 50 mg/kg Q3D,82%
same,tumor inhibition compared to vehicle control,[2]; 50 mg/kg Q5D,61%
same,tumor inhibition compared to vehicle control,[2]; 50 mg/kg Q7D,49%
same,lowest (minimal) efficacious dose,"[2]; BID, determined by 65% tumor volume inhibition",5 mg/kg
same,tumor response,"[2]; regression study, 1 mg/kg BID, vs vehicle",significantly (p<0.01) slowed tumor growth
same,tumor response,"[2]; regression study, 5 mg/kg BID",stasis of tumor growth
same,tumor response,"[2]; regression study, 10 mg/kg BID",regression of PC3 tumors
same,average tumor volume,"[2]; regression study, 10 mg/kg BID, day 43 (482.2±12.6 on day 20)",343.6±32.6 mm^3
same,tumor response,"[2]; regression study, 25 mg/kg Q2D",regression of tumors initially during the first 2 weeks of dosing
same,tumor volume,"[2]; regression study, 25 mg/kg Q2D, day 43 (475.1±19.6 on day 20)",549.4±45.7 mm^3
same,mouse plasma protein binding,[3],88%

# — patent publication US20140113904A1, “TREATMENT OF CANCER WITH TOR KINASE INHIBITORS” (SIGNAL PHARMACEUTICALS, LLC, priority 2012, published 2014)
